Test results: PubChem BioAssay (NCI)
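Five compound concentrations were applied to cells in 96-well plates for 48 hours; endpoints were derived by simple linear interpolation of the resulting dose-response curve. TGI denotes the concentration required for complete inhibition of growth.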

What was measured:
Test in all cases: NCI tumour cell line growth inhibition, 48 h
[1] = test system: PC-3 prostate
[2] = test system: MDA-N
[3] = test system: EKVX NSCLC
[4] = test system: SF-268 CNS
[5] = test system: A498 renal
[6] = test system: NCI-H226 lung
[7] = test system: SK-OV-3 ovarian
[8] = test system: TK-10 renal
[9] = test system: SNB-75 CNS
[10] = test system: KM12 colon
[11] = test system: OVCAR-3 ovarian
[12] = test system: SW-620 colon
[13] = test system: SF-295 CNS
[14] = test system: HL-60(TB) leukemia
[15] = test system: OVCAR-5 ovarian
[16] = test system: SN12C renal
[17] = test system: MCF7 breast
[18] = test system: HT29 colon
[19] = test system: HCC-2998 colon
[20] = test system: U251 CNS
[21] = test system: RPMI-8226 leukemia
[22] = test system: OVCAR-4 ovarian
[23] = test system: HOP-92 NSCLC
[24] = test system: MDA-MB-435
[25] = test system: UACC-62 melanoma
[26] = test system: SK-MEL-2 melanoma
[27] = test system: OVCAR-8 ovarian
[28] = test system: SK-MEL-5 melanoma
[29] = test system: HCT-116 colon
[30] = test system: NCI/ADR-RES ovarian
[31] = test system: HOP-62 NSCLC
[32] = test system: DU-145 prostate
[33] = test system: 786-0 renal
[34] = test system: UO-31 renal
[35] = test system: NCI-H23 lung
[36] = test system: SNB-19 CNS
[37] = test system: ACHN renal
[38] = test system: RXF 393 renal
[39] = test system: LOX IMVI melanoma
[40] = test system: NCI-H460 lung
[41] = test system: CCRF-CEM leukemia
[42] = test system: MOLT-4 leukemia
[43] = test system: T-47D breast
[44] = test system: MDA-MB-231 breast
[45] = test system: HS 578T breast
[46] = test system: SR leukemia
[47] = test system: COLO 205 colon
[48] = test system: IGROV1 ovarian
[49] = test system: M14 melanoma
[50] = test system: SK-MEL-28 melanoma
[51] = test system: NCI-H522 lung
[52] = test system: MALME-3M melanoma
[53] = test system: HCT-15 colon
[54] = test system: UACC-257 melanoma
[55] = test system: BT-549 breast
[56] = test system: CAKI-1 renal
[57] = test system: K-562 leukemia
[58] = test system: A549 NSCLC
[59] = test system: SF-539 CNS

Compound `Oc1ccccc1C(Sc1nc2ccccc2s1)Sc1nc2ccccc2s1` has a TGI [1] greater than 100 µM, a TGI [2] greater than 100 µM and a TGI [3] of 77.9 µM. It also gave a TGI [4] greater than 100 µM, a TGI [5] greater than 100 µM and a TGI [6] greater than 100 µM. For the same compound, the TGI [7] was greater than 100 µM, the TGI [8] was greater than 100 µM and the TGI [9] was greater than 100 µM. For the same compound, the TGI [10] was greater than 100 µM, the TGI [11] was greater than 100 µM and the TGI [12] was greater than 100 µM. It also gave a TGI [13] greater than 100 µM, a TGI [14] greater than 100 µM and a TGI [15] greater than 100 µM. It also gave a TGI [16] greater than 100 µM, a TGI [17] greater than 100 µM and a TGI [18] greater than 100 µM. For the same compound, the TGI [19] was greater than 100 µM, the TGI [20] was greater than 100 µM and the TGI [21] was greater than 100 µM. It also gave a TGI [22] greater than 100 µM, a TGI [23] of 95 µM and a TGI [24] greater than 100 µM. For the same compound, the TGI [25] was greater than 100 µM, the TGI [26] was greater than 100 µM and the TGI [27] was greater than 100 µM. For the same compound, the TGI [28] was greater than 100 µM, the TGI [29] was greater than 100 µM and the TGI [30] was greater than 100 µM. The TGI [31] was greater than 100 µM, the TGI [32] was greater than 100 µM and the TGI [33] was greater than 100 µM. For the same compound, the TGI [34] was greater than 100 µM, the TGI [35] was greater than 100 µM and the TGI [36] was greater than 100 µM. The TGI [37] was greater than 100 µM, the TGI [38] was greater than 100 µM and the TGI [39] was greater than 100 µM. For the same compound, the TGI [40] was greater than 100 µM, the TGI [41] was greater than 100 µM and the TGI [42] was greater than 100 µM. The TGI [43] was 73.5 µM, the TGI [44] was greater than 100 µM and the TGI [45] was greater than 100 µM. It also gave a TGI [46] greater than 100 µM, a TGI [47] greater than 100 µM and a TGI [48] greater than 100 µM. For the same compound, the TGI [49] was greater than 100 µM, the TGI [50] was greater than 100 µM and the TGI [51] was 56.8 µM. It also gave a TGI [52] greater than 100 µM, a TGI [53] greater than 100 µM and a TGI [54] greater than 100 µM. For the same compound, the TGI [55] was greater than 100 µM, the TGI [56] was greater than 100 µM and the TGI [57] was greater than 100 µM. For the same compound, the TGI [58] was greater than 100 µM.
With `COC(C(O)CO)C(O)C(O)C(=O)NNc1ccccc1` (stereo not drawn) the TGI [1] was greater than 100 µM, the TGI [2] was greater than 100 µM and the TGI [3] was greater than 100 µM. The TGI [4] was greater than 100 µM, the TGI [5] was greater than 100 µM and the TGI [7] was greater than 100 µM. For the same compound, the TGI [8] was greater than 100 µM, the TGI [9] was greater than 100 µM and the TGI [10] was greater than 100 µM. The TGI [11] was greater than 100 µM, the TGI [12] was greater than 100 µM and the TGI [13] was greater than 100 µM. The TGI [14] was greater than 100 µM, the TGI [15] was greater than 100 µM and the TGI [16] was greater than 100 µM. For the same compound, the TGI [17] was greater than 100 µM, the TGI [18] was greater than 100 µM and the TGI [19] was greater than 100 µM. The TGI [20] was greater than 100 µM, the TGI [21] was greater than 100 µM and the TGI [23] was greater than 100 µM. The TGI [24] was greater than 100 µM, the TGI [25] was greater than 100 µM and the TGI [26] was greater than 100 µM. For the same compound, the TGI [27] was greater than 100 µM, the TGI [28] was greater than 100 µM and the TGI [29] was greater than 100 µM. For the same compound, the TGI [30] was greater than 100 µM, the TGI [31] was greater than 100 µM and the TGI [32] was greater than 100 µM. It also gave a TGI [33] greater than 100 µM, a TGI [34] greater than 100 µM and a TGI [35] greater than 100 µM. The TGI [36] was greater than 100 µM, the TGI [37] was greater than 100 µM and the TGI [38] was greater than 100 µM. The TGI [39] was greater than 100 µM, the TGI [40] was greater than 100 µM and the TGI [41] was greater than 100 µM. The TGI [42] was greater than 100 µM, the TGI [43] was greater than 100 µM and the TGI [44] was greater than 100 µM. The TGI [45] was greater than 100 µM, the TGI [46] was greater than 100 µM and the TGI [47] was 28.7 µM. For the same compound, the TGI [48] was greater than 100 µM, the TGI [49] was greater than 100 µM and the TGI [50] was greater than 100 µM. It also gave a TGI [59] of 98.3 µM, a TGI [51] greater than 100 µM and a TGI [52] greater than 100 µM. It also gave a TGI [53] greater than 100 µM, a TGI [54] greater than 100 µM and a TGI [55] greater than 100 µM. It also gave a TGI [56] greater than 100 µM, a TGI [57] greater than 100 µM and a TGI [58] greater than 100 µM.
For `Cc1ccc(N=Nc2c(O)ccc3cc(S(=O)(=O)O)cc(S(=O)(=O)O)c23)cc1`, the TGI [1] was greater than 100 µM, the TGI [2] was greater than 100 µM and the TGI [3] was greater than 100 µM. It also gave a TGI [4] greater than 100 µM, a TGI [5] greater than 100 µM and a TGI [6] greater than 100 µM. For the same compound, the TGI [7] was greater than 100 µM, the TGI [8] was greater than 100 µM and the TGI [9] was greater than 100 µM. It also gave a TGI [10] greater than 100 µM, a TGI [11] greater than 100 µM and a TGI [12] greater than 100 µM. It also gave a TGI [13] greater than 100 µM, a TGI [14] greater than 100 µM and a TGI [15] greater than 100 µM. The TGI [16] was greater than 100 µM, the TGI [17] was greater than 100 µM and the TGI [19] was greater than 100 µM. The TGI [20] was greater than 100 µM, the TGI [22] was greater than 100 µM and the TGI [23] was greater than 100 µM. It also gave a TGI [24] greater than 100 µM, a TGI [25] greater than 100 µM and a TGI [26] greater than 100 µM. For the same compound, the TGI [27] was greater than 100 µM, the TGI [28] was greater than 100 µM and the TGI [29] was greater than 100 µM. It also gave a TGI [30] greater than 100 µM, a TGI [31] greater than 100 µM and a TGI [32] greater than 100 µM. For the same compound, the TGI [33] was greater than 100 µM, the TGI [34] was greater than 100 µM and the TGI [35] was greater than 100 µM. It also gave a TGI [36] greater than 100 µM, a TGI [37] greater than 100 µM and a TGI [38] greater than 100 µM. For the same compound, the TGI [40] was greater than 100 µM, the TGI [41] was greater than 100 µM and the TGI [42] was greater than 100 µM. For the same compound, the TGI [43] was greater than 100 µM, the TGI [44] was greater than 100 µM and the TGI [45] was greater than 100 µM. It also gave a TGI [46] greater than 100 µM, a TGI [47] greater than 100 µM and a TGI [48] greater than 100 µM. The TGI [49] was greater than 100 µM, the TGI [50] was greater than 100 µM and the TGI [59] was greater than 100 µM. It also gave a TGI [51] greater than 100 µM, a TGI [52] greater than 100 µM and a TGI [53] greater than 100 µM. For the same compound, the TGI [54] was greater than 100 µM, the TGI [55] was greater than 100 µM and the TGI [56] was greater than 100 µM. The TGI [57] was greater than 100 µM and the TGI [58] was greater than 100 µM.
For `CC(C)(C)OC(=O)NC(Cc1ccc(OCc2ccccc2)cn1)C(=O)N1CCCCC1` (stereo not drawn), the TGI [1] was 55.2 µM, the TGI [2] was greater than 100 µM and the TGI [3] was greater than 100 µM. It also gave a TGI [4] greater than 100 µM, a TGI [5] greater than 100 µM and a TGI [7] greater than 100 µM. The TGI [8] was greater than 100 µM, the TGI [9] was 70.3 µM and the TGI [10] was greater than 100 µM. It also gave a TGI [11] greater than 100 µM, a TGI [12] greater than 100 µM and a TGI [13] greater than 100 µM. The TGI [14] was 82.1 µM, the TGI [15] was greater than 100 µM and the TGI [16] was greater than 100 µM. It also gave a TGI [17] greater than 100 µM, a TGI [18] greater than 100 µM and a TGI [19] greater than 100 µM. For the same compound, the TGI [20] was greater than 100 µM, the TGI [21] was 52.7 µM and the TGI [23] was greater than 100 µM. The TGI [24] was 49 µM, the TGI [25] was greater than 100 µM and the TGI [26] was 58.2 µM. It also gave a TGI [27] greater than 100 µM, a TGI [28] of 31 µM and a TGI [29] greater than 100 µM. For the same compound, the TGI [30] was 59.2 µM, the TGI [31] was greater than 100 µM and the TGI [32] was greater than 100 µM. It also gave a TGI [33] greater than 100 µM, a TGI [34] of 71.4 µM and a TGI [35] greater than 100 µM. It also gave a TGI [36] greater than 100 µM, a TGI [37] greater than 100 µM and a TGI [38] of 65.3 µM. The TGI [39] was 71 µM, the TGI [40] was greater than 100 µM and the TGI [41] was greater than 100 µM. For the same compound, the TGI [42] was 47.7 µM, the TGI [43] was 33.9 µM and the TGI [44] was greater than 100 µM. The TGI [45] was greater than 100 µM, the TGI [46] was 93 µM and the TGI [47] was 33.3 µM. The TGI [48] was greater than 100 µM, the TGI [49] was greater than 100 µM and the TGI [50] was greater than 100 µM. It also gave a TGI [59] greater than 100 µM, a TGI [51] greater than 100 µM and a TGI [52] greater than 100 µM. For the same compound, the TGI [53] was greater than 100 µM, the TGI [54] was 47.3 µM and the TGI [55] was 60.7 µM. The TGI [56] was greater than 100 µM, the TGI [57] was greater than 100 µM and the TGI [58] was greater than 100 µM.
